Experimental data taken from the supplement of paper PMC10307832.

Key:
Assay in all cases: relative viability (nuclei count vs DMSO), 5 days (fraction); higher = more cells survive
NCI-H460 = test system: NCI-H460
Summary of the method: (§1)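 Relative viability equals treated-well nuclei counts divided by vehicle-well nuclei counts. Counts came from 4× images of lung cancer cell lines grown in 1536-well plates for 5 days after pin-tool dosing on the day after seeding. Dosing used one drug alone or a fixed anchor-drug dose plus five library-drug doses (not always all listed) in √10 steps, and values are medians of duplicate plates.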

NCI-H1793 = test system: NCI-H1793
Summary of the method: as §1

SW 1573 = test system: SW 1573
Summary of the method: as §1

NCI-H1944 = test system: NCI-H1944
Summary of the method: as §1

PC-3 [JPC-3] = test system: PC-3 [JPC-3]
Summary of the method: as §1

H3255 = test system: H3255
Summary of the method: as §1

LCLC-97TM1 = test system: LCLC-97TM1
Summary of the method: as §1

A-427 = test system: A-427
Summary of the method: as §1

SW 900 = test system: SW 900
Summary of the method: as §1

COR-L23 = test system: COR-L23
Summary of the method: as §1

LCLC-103H = test system: LCLC-103H
Summary of the method: as §1

201T = test system: 201T
Summary of the method: as §1

LU99A = test system: LU99A
Summary of the method: as §1

NCI-H2347 = test system: NCI-H2347
Summary of the method: as §1

NCI-H650 = test system: NCI-H650
Summary of the method: as §1

PC-14 = test system: PC-14
Summary of the method: as §1

NCI-H23 = test system: NCI-H23
Summary of the method: as §1

RERF-LC-KJ = test system: RERF-LC-KJ
Summary of the method: as §1

LK-2 = test system: LK-2
Summary of the method: as §1

NCI-H727 = test system: NCI-H727
Summary of the method: as §1

NCI-H1651 = test system: NCI-H1651
Summary of the method: as §1

NCI-H1650 = test system: NCI-H1650
Summary of the method: as §1

NCI-H838 = test system: NCI-H838
Summary of the method: as §1

Compound `CC(C)Oc1cc(Nc2nc(N[C@@H](C)c3ccc(F)cn3)ncc2Cl)n[nH]1` [AZ23] + CC(=O)c1c(C)c2cnc(Nc3ccc(N4CCNCC4)cn3)nc2n(C2CCCC2)c1=O [Palbociclib] (partner 0.5 µM) has a relative viability (NCI-H460; first compound 0.01 µM) of 0.0638, a relative viability (NCI-H460; first compound 0.03162 µM) of 0.146 and a relative viability (NCI-H460; first compound 0.3162 µM) of 0.127. The relative viability (NCI-H1793; first compound 0.01 µM) was 0.347, the relative viability (NCI-H1793; first compound 0.03162 µM) was 0.35 and the relative viability (NCI-H1793; first compound 0.3162 µM) was 0.247. It also gave a relative viability (SW 1573; first compound 0.01 µM) of 0.58, a relative viability (SW 1573; first compound 0.03162 µM) of 0.467 and a relative viability (SW 1573; first compound 0.3162 µM) of 0.394. It also gave a relative viability (NCI-H1944; first compound 0.01 µM) of 0.304, a relative viability (NCI-H1944; first compound 0.03162 µM) of 0.342 and a relative viability (NCI-H1944; first compound 0.3162 µM) of 0.278. The relative viability (PC-3 [JPC-3]; first compound 0.01 µM) was 0.552, the relative viability (PC-3 [JPC-3]; first compound 0.03162 µM) was 0.611 and the relative viability (PC-3 [JPC-3]; first compound 0.3162 µM) was 0.536. For the same compound, the relative viability (H3255; first compound 0.01 µM) was 0.31, the relative viability (H3255; first compound 0.03162 µM) was 0.318 and the relative viability (H3255; first compound 0.3162 µM) was 0.295. For the same compound, the relative viability (LCLC-97TM1; first compound 0.01 µM) was 0.261, the relative viability (LCLC-97TM1; first compound 0.03162 µM) was 0.248 and the relative viability (LCLC-97TM1; first compound 0.3162 µM) was 0.203. It also gave a relative viability (A-427; first compound 0.01 µM) of 0.459, a relative viability (A-427; first compound 0.03162 µM) of 0.524 and a relative viability (A-427; first compound 0.3162 µM) of 0.586. The relative viability (SW 900; first compound 0.01 µM) was 0.653, the relative viability (SW 900; first compound 0.3162 µM) was 0.501 and the relative viability (COR-L23; first compound 0.01 µM) was 0.239. It also gave a relative viability (COR-L23; first compound 0.03162 µM) of 0.301, a relative viability (COR-L23; first compound 0.3162 µM) of 0.254 and a relative viability (LCLC-103H; first compound 0.01 µM) of 0.485. For the same compound, the relative viability (LCLC-103H; first compound 0.03162 µM) was 0.421, the relative viability (LCLC-103H; first compound 0.3162 µM) was 0.503 and the relative viability (201T; first compound 0.01 µM) was 0.359. For the same compound, the relative viability (201T; first compound 0.03162 µM) was 0.38, the relative viability (201T; first compound 0.3162 µM) was 0.372 and the relative viability (LU99A; first compound 0.01 µM) was 0.39. For the same compound, the relative viability (LU99A; first compound 0.03162 µM) was 0.468, the relative viability (LU99A; first compound 0.3162 µM) was 0.371 and the relative viability (NCI-H2347; first compound 0.01 µM) was 0.441. The relative viability (NCI-H2347; first compound 0.03162 µM) was 0.418, the relative viability (NCI-H2347; first compound 0.3162 µM) was 0.398 and the relative viability (NCI-H650; first compound 0.01 µM) was 0.352. It also gave a relative viability (NCI-H650; first compound 0.03162 µM) of 0.309, a relative viability (NCI-H650; first compound 0.3162 µM) of 0.301 and a relative viability (PC-14; first compound 0.01 µM) of 0.492. It also gave a relative viability (PC-14; first compound 0.03162 µM) of 0.567, a relative viability (PC-14; first compound 0.3162 µM) of 0.577 and a relative viability (NCI-H23; first compound 0.03162 µM) of 0.548. It also gave a relative viability (NCI-H23; first compound 0.3162 µM) of 0.512, a relative viability (RERF-LC-KJ; first compound 0.01 µM) of 1.13 and a relative viability (RERF-LC-KJ; first compound 0.03162 µM) of 1.14. It also gave a relative viability (RERF-LC-KJ; first compound 0.3162 µM) of 1.14, a relative viability (LK-2; first compound 0.03162 µM) of 0.544 and a relative viability (LK-2; first compound 0.3162 µM) of 0.678. For the same compound, the relative viability (NCI-H727; first compound 0.01 µM) was 0.59, the relative viability (NCI-H727; first compound 0.03162 µM) was 0.66 and the relative viability (NCI-H727; first compound 0.3162 µM) was 0.619. For the same compound, the relative viability (NCI-H1651; first compound 0.01 µM) was 0.523, the relative viability (NCI-H1651; first compound 0.03162 µM) was 0.526 and the relative viability (NCI-H1651; first compound 0.3162 µM) was 0.505. It also gave a relative viability (NCI-H1650; first compound 0.01 µM) of 0.303, a relative viability (NCI-H1650; first compound 0.03162 µM) of 0.439 and a relative viability (NCI-H1650; first compound 0.3162 µM) of 0.378. The relative viability (NCI-H838; first compound 0.01 µM) was 0.227, the relative viability (NCI-H838; first compound 0.03162 µM) was 0.23 and the relative viability (NCI-H838; first compound 0.3162 µM) was 0.247.
In the case of `CC(C)Oc1cc(Nc2nc(N[C@@H](C)c3ccc(F)cn3)ncc2Cl)n[nH]1` [AZ23] + Cc1cc(Nc2cc(N3CCN(C)CC3)nc(Sc3ccc(NC(=O)C4CC4)cc3)n2)n[nH]1 [Tozasertib] (partner 0.1 µM), the relative viability (NCI-H460; first compound 0.01 µM) is reported as 0.184, the relative viability (NCI-H460; first compound 0.03162 µM) is reported as 0.518 and the relative viability (NCI-H460; first compound 0.3162 µM) is reported as 0.566. The relative viability (NCI-H1793; first compound 0.01 µM) was 0.317, the relative viability (NCI-H1793; first compound 0.03162 µM) was 0.373 and the relative viability (NCI-H1793; first compound 0.3162 µM) was 0.339. The relative viability (SW 1573; first compound 0.01 µM) was 0.168, the relative viability (SW 1573; first compound 0.03162 µM) was 0.151 and the relative viability (SW 1573; first compound 0.3162 µM) was 0.17. The relative viability (NCI-H1944; first compound 0.01 µM) was 0.279, the relative viability (NCI-H1944; first compound 0.03162 µM) was 0.247 and the relative viability (NCI-H1944; first compound 0.3162 µM) was 0.243. The relative viability (PC-3 [JPC-3]; first compound 0.01 µM) was 1.03, the relative viability (PC-3 [JPC-3]; first compound 0.03162 µM) was 0.87 and the relative viability (PC-3 [JPC-3]; first compound 0.3162 µM) was 0.959. It also gave a relative viability (H3255; first compound 0.01 µM) of 0.662, a relative viability (H3255; first compound 0.03162 µM) of 0.821 and a relative viability (H3255; first compound 0.3162 µM) of 0.675. It also gave a relative viability (LCLC-97TM1; first compound 0.01 µM) of 0.186, a relative viability (LCLC-97TM1; first compound 0.03162 µM) of 0.266 and a relative viability (LCLC-97TM1; first compound 0.3162 µM) of 0.194. The relative viability (A-427; first compound 0.01 µM) was 0.174, the relative viability (A-427; first compound 0.03162 µM) was 0.193 and the relative viability (A-427; first compound 0.3162 µM) was 0.177. For the same compound, the relative viability (SW 900; first compound 0.01 µM) was 0.536, the relative viability (SW 900; first compound 0.03162 µM) was 0.654 and the relative viability (SW 900; first compound 0.3162 µM) was 0.532. It also gave a relative viability (COR-L23; first compound 0.01 µM) of 0.135, a relative viability (COR-L23; first compound 0.03162 µM) of 0.231 and a relative viability (COR-L23; first compound 0.3162 µM) of 0.205. For the same compound, the relative viability (LCLC-103H; first compound 0.01 µM) was 0.467, the relative viability (LCLC-103H; first compound 0.03162 µM) was 0.491 and the relative viability (LCLC-103H; first compound 0.3162 µM) was 0.559. The relative viability (201T; first compound 0.01 µM) was 1.03, the relative viability (201T; first compound 0.03162 µM) was 0.968 and the relative viability (201T; first compound 0.3162 µM) was 0.985. It also gave a relative viability (LU99A; first compound 0.01 µM) of 0.243, a relative viability (LU99A; first compound 0.03162 µM) of 0.286 and a relative viability (LU99A; first compound 0.3162 µM) of 0.296. The relative viability (NCI-H2347; first compound 0.01 µM) was 0.645, the relative viability (NCI-H2347; first compound 0.03162 µM) was 0.609 and the relative viability (NCI-H2347; first compound 0.3162 µM) was 0.604. The relative viability (NCI-H650; first compound 0.01 µM) was 0.728, the relative viability (NCI-H650; first compound 0.03162 µM) was 0.75 and the relative viability (NCI-H650; first compound 0.3162 µM) was 0.802. For the same compound, the relative viability (PC-14; first compound 0.01 µM) was 0.428, the relative viability (PC-14; first compound 0.03162 µM) was 0.656 and the relative viability (PC-14; first compound 0.3162 µM) was 0.696. For the same compound, the relative viability (NCI-H23; first compound 0.03162 µM) was 0.558, the relative viability (NCI-H23; first compound 0.3162 µM) was 0.363 and the relative viability (RERF-LC-KJ; first compound 0.01 µM) was 0.532. For the same compound, the relative viability (RERF-LC-KJ; first compound 0.03162 µM) was 0.569, the relative viability (RERF-LC-KJ; first compound 0.3162 µM) was 0.572 and the relative viability (LK-2; first compound 0.01 µM) was 0.184. For the same compound, the relative viability (LK-2; first compound 0.03162 µM) was 0.222, the relative viability (LK-2; first compound 0.3162 µM) was 0.195 and the relative viability (NCI-H727; first compound 0.01 µM) was 0.754. It also gave a relative viability (NCI-H727; first compound 0.03162 µM) of 0.679, a relative viability (NCI-H727; first compound 0.3162 µM) of 0.37 and a relative viability (NCI-H1651; first compound 0.03162 µM) of 0.885. It also gave a relative viability (NCI-H1651; first compound 0.3162 µM) of 0.71, a relative viability (NCI-H1650; first compound 0.03162 µM) of 0.433 and a relative viability (NCI-H1650; first compound 0.3162 µM) of 0.45. It also gave a relative viability (NCI-H838; first compound 0.01 µM) of 0.267, a relative viability (NCI-H838; first compound 0.03162 µM) of 0.301 and a relative viability (NCI-H838; first compound 0.3162 µM) of 0.274.
